Measured values from article PMC7539967, “The Plasmodium falciparum eIK1 kinase (PfeIK1) is central for melatonin synchronization in the human malaria parasite. Melatotosil blocks melatonin action on parasite cell cycle” (Journal of Pineal Research, 2020).
Entries after “also recorded” stand apart in the source; their conditions may differ. Where two headings read alike, the source gives them in different places.

Columns and labels:
[1] = test system: Plasmodium falciparum 3D7; assay: In vitro growth assay and flow cytometry analysis (72 h), 3D7; format: cell-based; conditions: for IC50: Plasmodium falciparum
Procedure: (§1) Red blood cells infected with P. falciparum 3D7 or PfeIK1^‐ (iRBC) with 0.3 % initial parasitemia and 1% hematocrit were incubated with different concentrations of compounds Tripbenz (4), Triptosil (5), Triptiofen (6), Tripfuroila (7), and Tripcicloexil (8) ranging from 0.107 to 110 µM, and compounds Melatobenz (9), Melatotosil (10), Melatofuroila (11), and Melatocicloexil (12) ranging from 0.1 to 100 µM for 72 hours at 37°C under mixture of gases. The control group was treated with solvent dimethyl sulfoxide (DMSO) (v/v), with the highest concentration of solvent 0.14%. Chloroquine was used as positive control with concentrations ranging from 0.244 to 250 nM. Parasitemia was determined from dot plots (side scatter versus fluorescence) of at least 10^3 cells acquired on a FACSCalibur flow cytometer using […] software (Becton Dickinson) or an Accuri C6 flow cytometer (Becton Dickinson). Initial gating was carried out with unstained, uninfected erythrocytes to account for erythrocyte auto fluorescence. The concentration responsible for 50% inhibition (IC50) was determined from the compound concentration‐response curve determined with the software GraphPad Prism 6.
(§2) For assays with antimalarials, iRBC were incubated with different concentrations of Atovaquone ranging from 0.02 to 24 nM, or Artemisinin 0.15‐160 nM.
(§3) After 72 hours, iRBC were stained with nucleic acid marker SYBR Green I (1X) (Invitrogen) and mitochondria marker based on membrane potential MitoTracker Deep Red (50 nM) (Invitrogen), and incubated for 20 minutes at 37°C. Final parasitemia was obtained by flow cytometer using a BD Accuri C6 Flow Cytometer, collecting 10^4 cells. Parasitemia was determined by dot plots using FlowJo 5 software.
(§4) At least three independent experiments were performed in triplicate to calculate the IC50 values for each drug.

P. falciparum PfeIK1^‐ [2] = assay: In vitro growth assay and flow cytometry analysis (72 h), PfeIK1 knockout; format: cell-based, Plasmodium falciparum; conditions: for IC50: Plasmodium falciparum
Procedure: as §1, §2, §3, §4

P. falciparum PfeIK1^‐ [3] = assay: Effect of compounds on melatonin action on parasitemia, PfeIK1 knockout; format: cell-based, Plasmodium falciparum; conditions: 500 nM compound + 100 nM melatonin, 48 h, normalized to control
Procedure: (§5) To evaluate the effect of the compounds on melatonin action on parasitemia, iRBC were incubated with 500 nM of compounds for 10 minutes and then along with 100 nM of melatonin for 48 hours at 37°C under mixture of gases.
(§6) After 48 hours, iRBC were double‐stained ^34 with nucleic acid marker SYBR Green I (1X) and mitochondria marker, based on membrane potential, MitoTracker Deep Red (50 nM), and incubated for 20 minutes at 37°C.
(§7) Final parasitemia was obtained by flow cytometer using an Accuri C6 flow cytometer (Becton Dickinson), collecting 10^4 cells. Parasitemia was determined by dot plots using FlowJo 5 software.

[4] = test system: Plasmodium falciparum 3D7; assay: Effect of indole compounds in parasitemia (48 h), 3D7; format: cell-based; conditions: 3D7, 500 nM compound; for activity at 0.5 µM: Plasmodium falciparum, read-out: final parasitemia normalized to control
Procedure: (§8) Red blood cells infected (iRBC) with 3D7 or PfeIK1^‐ (iRBC) with 1% initial parasitemia and 2% hematocrit were incubated with 500 nM of the synthetic indole compounds or 100 nM Melatonin for 48 hours at 37°C under mixture of gases. ^12 The control group received 0.0013% of solvent dimethyl sulfoxide (DMSO).
as §6, §7

P. falciparum PfeIK1^‐ [5] = assay: Effect of indole compounds in parasitemia (48 h), PfeIK1 knockout; format: cell-based; conditions: Plasmodium falciparum, read-out: final parasitemia normalized to control
Procedure: as §8, §6, §7

[6] = test system: Plasmodium falciparum 3D7; assay: Effect of compounds on melatonin action on parasitemia, 3D7; format: cell-based; conditions: 3D7, 500 nM compound + 100 nM melatonin, 48 h
Procedure: as §5, §6, §7

[7] = test system: P. falciparum GCaMP3 parasites; assay: Calcium assay in transgenic PfGCaMP3 parasites; format: cell-based, Plasmodium falciparum; conditions: 500 nM; for cytosolic calcium rise: PfGCaMP3; for Fmax/F0 (maximum fluorescence normalized to baseline): PfGCaMP3, 120 cells
Procedure: Calcium assays were performed using the transgenic P. falciparum GCaMP3 parasites. ^37 PfGCaMP3 cultures were synchronized at least three times with 5% sorbitol before starting the experiments, and parasitemia was maintained between 5% and 8%. PfGCaMP3 parasites were cultivated with 10 nM/mL of WR for selection. Parasites were isolated with saponin (0.016%) and collected by centrifugation 8000 rpm, subsequently washed twice with buffer M, and allowed to settle in a four‐well plate for microscope coated with poly‐L‐lysine for 30 minutes at 37°C with 5% CO2 in buffer M ([…], 5.4 mM KCl, 0.8 mM MgSO4, 5.5 mMD‐glucose, 50 mM MOPS, and 2 mM CaCl2, pH 7.2). The compounds used for measuring calcium assays were as follows: Melatotosil and Triptiofen solubilized in DMSO.
Images were captured using a Nikon Eclipse Ti2 inverted microscope with FITC filter. Images were collected every 10 seconds for 5 minutes, with NIS‐Elements Ar 5.11.01 from Nikon using 60× lens. All experiments were performed at least three independent times in duplicates.

[8] = test system: Human Embryonic Kidney cells (HEK293); assay: Cytotoxicity Assay in HEK293 cells (MTT); format: cell-based; conditions: 0.107 to 110 µM, 72 h
Procedure: To evaluate toxicity of the new indole compounds in mammalian cells, Human Embryonic Kidney cells (HEK293) were maintained in 75 cm^2 culture flasks (Greiner Bio‐One) at 37°C, 5%CO2 in […] (DMEM), supplemented with 10% fetal bovine serum, NaHCO33.7 g/L (Sigma), 100 U/mL penicillin/, and 100 μg/mL streptomycin in monolayers.
Cells were plated in flat‐bottom 96‐well plates in a density of 10^4 cells per well and incubated for 24 hours in 150 µL media at 37°C, 5%CO2. Cells were then treated with different concentrations of each compound, ranging from 0.107 to 110 µM in 200 µL DMEM for 72 hours at 37°C and 5%CO2. Cells treated with DMSO (v/v) with the highest concentration of solvent 0.14% were used as control.
After incubation, 40 µL of MTT reagent (solution 5 mg/mL in PBS) was added to each well, and cells were incubated for further 3 hours at 37°C and 5% CO2. The media were removed and 100 µL of DMSO was added in each well. Plates were agitated in a shaker for 10 minutes to dissolve precipitates. Absorbance was read at 570 nm in a FlexStation 3 (Molecular Devices). Six experiments were performed independently in triplicates.

P. falciparum (3D7) = assay: Microscopy evaluation of blood-stage development (Giemsa smears); format: cell-based, Plasmodium falciparum; conditions: for parasites in segmented schizont stage: 48 h, 3D7, Giemsa smears
Procedure: Plasmodium falciparum (3D7) cultures were synchronized by three rounds of 5% sorbitol treatment for 1 hour. ^35 Parasites at ring stage with initial 1% parasitemia and 2% hematocrit were incubated with Triptiofen (6) at concentrations of 1 and 10 µM in 24‐well plates for 48 hours at 37°C under mixture of gases. The DMSO solvent (0.1%) was used as a control. Smears of infected erythrocytes stained with Giemsa were performed at regular intervals (0, 12, 24, 36 and 48 hours after treatment). ^36 Parasite images were acquired under a light microscope (Zeiss) with 100× magnification to assess the parasite's blood development stages. The parasitemia at the end of the experiment was quantified for comparison between groups. Three independent experiments were performed in triplicate. Data were analyzed using software GraphPad Prism 6.

[9] = 72 h, parasitemia by flow cytometry, wild-type 3D7, read-out: IC50 3D7 strain (antimalarials)
[10] = read-out: IC50 PfelK1^‐ strain (antimalarials)
[11] = 3D7, 72 h, read-out: IC50 (µM) 3D7 strain
[12] = read-out: IC50 (µM) PfelK1^‐ strain

Compound	final parasitemia, compound along with melatonin (P. falciparum PfeIK1^‐ [3]) [%]	activity at 0.5 µM [4] [%]	activity at 0.5 µM (P. falciparum PfeIK1^‐ [5]) [%]	IC50 [1, 11] [µM]	IC50 (P. falciparum PfeIK1^‐ [2]; [12]) [µM]	ability to abolish the increase in parasitemia triggered by melatonin [6]	decrease in parasitemia compared to treatment with the hormone only [6] [%]	parasitemia normalized to control, compound along with melatonin [6] [%]	toxicity in HEK293 cells [8]	further results
C[C@@H]1CC[C@H]2[C@@H](C)C(=O)O[C@@H]3O[C@@]4(C)CC[C@@H]1[C@]32OO4 [Artemisinin, reference compound]										IC50 [1, 9]: 0.0137 µM; IC50 (P. falciparum PfeIK1^‐ [2]; [10]): 0.0188 µM
O=C1C(O)=C([C@H]2CC[C@H](c3ccc(Cl)cc3)CC2)C(=O)c2ccccc21 [Atovaquone, reference compound]										IC50 [1, 9]: 0.0004 µM; IC50 (P. falciparum PfeIK1^‐ [2]; [10]): 0.00047 µM
CCN(CC)CCCC(C)Nc1ccnc2cc(Cl)ccc12 (stereo not shown) [Chloroquine, reference compound]										IC50 ([1]; 3D7, 72 h, read-out: IC50 3D7 strain (antimalarials)): 0.0099 µM
COc1ccc2[nH]cc(CCNS(=O)(=O)c3ccccc3)c2c1 [Melatobenz (9), N‐(2‐(5‐methoxy‐1H‐indol‐3‐yl)ethyl)benzenesulfonamide]	105.0 ± 1.97	102	100	38.5 ± 1.57	57.8					
COc1ccc2[nH]cc(CCNC(=O)C3CCCCC3)c2c1 [Melatocicloexil (12), N‐(2‐(5‐methoxy‐1H‐indol‐3‐yl)ethyl)cyclohexanecarboxamide]	107.0 ± 1.37	104	98.3	35.2 ± 4.14	47.6 ± 6.43					
COc1ccc2[nH]cc(CCNC(=O)c3ccco3)c2c1 [Melatofuroila (11), N‐(2‐(5‐methoxy‐1H‐indol‐3‐yl)ethyl)furan‐2‐carboxamide]	99.78 ± 2.03	102	97.1	30.9 ± 4.92	31.9 ± 0.46					
COc1ccc2[nH]cc(CCNS(=O)(=O)c3ccc(C)cc3)c2c1 [Melatotosil (10), N‐(2‐(5‐methoxy‐1H‐indol‐3‐yl)ethyl)‐4‐methylbenzenesulfonamide]	106.2 ± 1.55		97.5			able to abolish	11.69	98.07		cytosolic calcium rise [7]: elicits a calcium rise; Fmax/F0 (maximum fluorescence normalized to baseline) [7]: 1.21 ± 0.01; increase in parasitemia compared to control group [4]: 10%; IC50 (µM) 3D7 strain ([1]; 72 h, parasitemia by flow cytometry, wild-type 3D7): without antimalarial activity; also recorded: No activity; IC50 (µM) PfelK1^‐ strain (P. falciparum PfeIK1^‐ [2]; parasitemia by flow cytometry, PfeIK1 knockout): No activity
O=S(=O)(NCCc1c[nH]c2ccccc12)c1ccccc1 [Tripbenz (4), N‐(2‐(1H‐indol‐3‐yl) ethyl)benzenesulfonamide]		100	95.6	18.7 ± 2.5	36.8 ± 3.44				no toxicity	
O=C(NCCc1c[nH]c2ccccc12)C1CCCCC1 [Tripcicloexil (8), N‐(2‐(1H‐indol‐3‐yl)ethyl)cyclohexanecarboxamide]	105.5 ± 0.91	102	101	28 ± 4.07	37.6 ± 2.72				no toxicity	
O=C(NCCc1c[nH]c2ccccc12)c1ccco1 [Tripfuroila (7), N‐(2‐(1H‐indol‐3‐yl)ethyl)furan‐2‐carboxamide]	102.3 ± 1.53	101	98.5	17.1 ± 2.6	23.6 ± 2.2	able to abolish	11.25	98.52	no toxicity	
O=C(NCCc1c[nH]c2ccccc12)c1ccc(Br)s1 [Triptiofen (6), N‐(2‐(1H‐indol‐3‐yl) ethyl)‐5‐bromothiophene‐2‐carboxamide]	104.1 ± 1.87	99.8	98.7	9.76 ± 0.6	11.8 ± 0.6	able to abolish	10	100.1	no toxicity	cytosolic calcium rise [7]: does not trigger a significant cytosolic calcium rise; Fmax/F0 (maximum fluorescence normalized to baseline) [7]: 1.11 ± 0.008; parasites in segmented schizont stage (P. falciparum (3D7); 1 µM): 1.33 ± 0.33; parasites in segmented schizont stage (P. falciparum (3D7); 10 µM): 2.22 ± 0.32; number of parasites compared to control (P. falciparum (3D7); 1 and 10 µM, starting at 36 hours, 3D7): significantly reduces
Cc1ccc(S(=O)(=O)NCCc2c[nH]c3ccccc23)cc1 [Triptosil (5), N‐(2‐(1H‐indol‐3‐yl)ethyl)‐4‐methylbenzenesulfonamide]	105.4 ± 2.05	100	99.3 ± 2.18	19.8 ± 5.33	30.6 ± 1.55	able to abolish	9.7	100	no toxicity	
